According to patent publication US12448363B2, “Kinase inhibitors” (Vidya Therapeutics, Inc., priority 2020, dated 2025):

How the values were obtained:
[1] = test system: BTK Activity in RAMOS B Cells; assay: Assay to determine BTK activity in RAMOS B cells (anti-IgM, FLIPR Calcium 6); assay type: cell-based; conditions: EC80 anti-IgM, FLIPR calcium read
Summary of the method: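 Ramos B cells were loaded with Calcium 6 dye containing 5 mM probenecid (2 h at 37 °C, then 15 min at 25 °C) and exposed to compound for 60 min at 25 °C. Anti-IgM was then added from a 4×EC80 stock, and calcium flux was recorded by FLIPR for 160 s; IC50 was derived.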

[2] = Plasma and total brain concentrations at 1 h post a single oral administration to female C57BL/6 mice; assay type: in vivo; conditions: mouse, 1 h post single oral 10 mg/kg, LC-MS/MS, read-out: Brain:plasma ratio
Description: Determination of Plasma and Total Brain Concentrations at 1 h Post a Single Oral Administration of Test Compound to Female C57BL/6 Mice
The appropriate amount of test article was dissolved 10% dimethylacetamide (DMA)/90% (20% hydroxypropyl-b-cyclodextrin (HP-β-CD) w/v in water to obtain a final concentration of 1 mg/mL for oral dosing. Sonication, vortex, and homogenization was used as needed. Three female C57BL/6 mice aged 7-9 weeks (20-30 grams) were dosed by oral gavage 10 mg/kg solution of the test article.
Concentrations of representative test compounds in the plasma and brain samples (using plasma and brain homogenate standard curve for all samples appropriately) were analyzed using LC-MS/MS. With respect to the brain:plasma ratio, Table 11 lists the results as follows: • “A” denotes a ratio >0.5; • “B” denotes a ratio between 0.1 and 0.5; and • “C” denotes a ratio <0.1.

BTK = BTK (Homo sapiens, UniProt Q06187); assay: Assay to determine activity against BTK (EZ reader, FLPeptide); assay type: biochemical; set-up: purchased Carna; conditions: ATP (1 mM), BTK (2 nM), room temperature for 90 minutes
Chain of BTK (Q06187 whole entry): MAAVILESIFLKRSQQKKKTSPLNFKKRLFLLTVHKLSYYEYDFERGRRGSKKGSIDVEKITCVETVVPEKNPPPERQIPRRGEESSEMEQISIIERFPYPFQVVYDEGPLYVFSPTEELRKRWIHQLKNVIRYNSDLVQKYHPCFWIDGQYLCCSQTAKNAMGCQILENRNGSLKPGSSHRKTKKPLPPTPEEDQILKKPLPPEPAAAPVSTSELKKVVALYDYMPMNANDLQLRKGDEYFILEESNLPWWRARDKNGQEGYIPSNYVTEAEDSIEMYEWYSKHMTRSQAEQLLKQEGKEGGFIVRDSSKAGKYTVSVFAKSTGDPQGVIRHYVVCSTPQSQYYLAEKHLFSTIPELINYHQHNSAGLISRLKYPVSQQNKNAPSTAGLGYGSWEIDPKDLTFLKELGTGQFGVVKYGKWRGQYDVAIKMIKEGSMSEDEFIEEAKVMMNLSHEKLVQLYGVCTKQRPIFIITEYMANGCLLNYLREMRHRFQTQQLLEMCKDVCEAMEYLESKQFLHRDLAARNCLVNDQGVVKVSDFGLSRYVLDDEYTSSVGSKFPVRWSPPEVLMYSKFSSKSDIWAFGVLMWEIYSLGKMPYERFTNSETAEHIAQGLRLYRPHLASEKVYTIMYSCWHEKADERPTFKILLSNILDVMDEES
Summary of the method: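 Human BTK (2 nM) phosphorylated FLPeptide (1.5 uM) with 1 mM ATP in 50 mM HEPES pH7.5, 10 mM MgCl2, 2 mM DTT, 1 mM EGTA, 0.01% Brij-35, 0.05% BSA; 11-point 3-fold compound dilutions. After 90 min at room temperature, EDTA stop; conversion ratio read on EZ reader, IC50 from curve fit with free top and bottom.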

Row | Structure (SMILES) | IC50 ([1]; Homo sapiens, Ramos) [µM] | Kp at 1 h [2] | IC50 (BTK) [µM] | IC50 [1] [µM]
1 | C=CC(=O)N1CCc2c(-c3c(F)cc(C(N)=O)c4[nH]c(C)c(Cl)c34)cccc2C1C (racemic) [Compound 22a, 4-(2-acryloyl-1-methyl-1,2,3,4-tetrahydroisoquinolin-5-yl)-3-chloro-5-fluoro-2-methyl-1H-indole-7-carboxamide] | 0.01 to 0.1 | 0.1 to 0.5 | < 0.01 | –
2 | C=CC(=O)N1CCC2CCN(c3c(F)cc(C(N)=O)c4[nH]c(C)c(Cl)c34)CC21 (racemic) [Compound 29, 4-(1-acryloyloctahydro-6H-pyrrolo[2,3-c]pyridin-6-yl)-3-chloro-5-fluoro-2-methyl-1H-indole-7-carboxamide] | 0.01 to 0.1 | 0.1 to 0.5 | 0.01 to 0.1 | –
3 | C=CC(=O)N1CCc2c(cccc2-c2c(F)cc(C(N)=O)c3[nH]c(C)c(Cl)c23)C1 (single isomer, unassigned) [Compound 20b] | – | 0.1 to 0.5 | < 0.01 | < 0.01
4 | C=CC(=O)N1CCC2CCN(c3c(F)cc(C(N)=O)c4[nH]c(C)c(Cl)c34)CC21 (single isomer, unassigned) [Compound 29a, 4-(1-acryloyloctahydro-6H-pyrrolo[2,3-c]pyridin-6-yl)-3-chloro-5-fluoro-2-methyl-1H-indole-7-carboxamide] | 0.01 to 0.1 | 0.1 to 0.5 | 0.01 to 0.1 | –
5 | C=CC(=O)N1CCC2CCN(c3c(F)cc(C(N)=O)c4[nH]c(C)c(C)c34)CC21 (single isomer, unassigned) [Compound 32b, 4-(1-acryloyloctahydro-6H-pyrrolo[2,3-c]pyridin-6-yl)-5-fluoro-2,3-dimethyl-1H-indole-7-carboxamide] | – | < 0.1 | 0.01 to 0.1 | 0.01 to 0.1
6 | C=CC(=O)N1CCC=C(c2c(F)cc(C(N)=O)c3[nH]c(C)c(Cl)c23)C1 [Compound 1, 4-(1-acryloyl-1,2,5,6-tetrahydropyridin-3-yl)-3-chloro-5-fluoro-2-methyl-1H-indole-7-carboxamide] | < 0.01 | < 0.1 | < 0.01 | –
7 | C=CC(=O)N1CCC[C@@H](c2c(F)cc(C(N)=O)c3[nH]c(C)c(Cl)c23)C1 [Compound 2a, (S)-4-(1-acryloylpiperidin-3-yl)-3-chloro-5-fluoro-2-methyl-1H-indole-7-carboxamide] | < 0.01 | 0.1 to 0.5 | < 0.01 | –
8 | C=CC(=O)N1CCC[C@H](c2c(F)c(F)c(C(N)=O)c3[nH]c(C)c(F)c23)C1 [Compound 6a, (R)-4-(1-acryloylpiperidin-3-yl)-3,5,6-trifluoro-2-methyl-1H-indole-7-carboxamide] | < 0.01 | 0.1 to 0.5 | < 0.01 | –
9 | C=CC(=O)N1CCC[C@@H](c2c(F)c(F)c(C(N)=O)c3[nH]c(C)c(F)c23)C1 [Compound 6b, (S)-4-(1-acryloylpiperidin-3-yl)-3,5,6-trifluoro-2-methyl-1H-indole-7-carboxamide] | < 0.01 | 0.1 to 0.5 | < 0.01 | –
10 | C=CC(=O)N1CCC[C@@H](c2c(F)c(F)c(C(N)=O)c3[nH]c(C)c(Cl)c23)C1 [Compound 16, (S)-4-(1-acryloylpiperidin-3-yl)-3-chloro-5,6-difluoro-2-methyl-1H-indole-7-carboxamide] | < 0.01 | 0.1 to 0.5 | < 0.01 | –
11 | CC#CC(=O)N[C@H]1C[C@@H](F)CN(c2c(F)cc(C(N)=O)c3[nH]c(C)c(Cl)c23)C1 [Compound 27, 4-((3S,5R)-3-(but-2-ynamido)-5-fluoropiperidin-1-yl)-3-chloro-5-fluoro-2-methyl-1H-indole-7-carboxamide] | < 0.01 | 0.1 to 0.5 | < 0.01 | –
12 | CC#CC(=O)N[C@H]1C[C@@H](F)CN(c2c(F)cc(C(N)=O)c3[nH]c(C)c(C)c23)C1 [Compound 33, 4-((3S,5R)-3-(but-2-ynamido)-5-fluoropiperidin-1-yl)-5-fluoro-2,3-dimethyl-1H-indole-7-carboxamide] | < 0.01 | < 0.1 | < 0.01 | –
13 | CC#CC(=O)N[C@H]1C[C@H](F)CN(c2c(F)cc(C(N)=O)c3[nH]c(C)c(C)c23)C1 [Compound 35, 4-((3S,5S)-3-(but-2-ynamido)-5-fluoropiperidin-1-yl)-5-fluoro-2,3-dimethyl-1H-indole-7-carboxamide] | < 0.01 | < 0.1 | < 0.01 | –
14 | CC#CC(=O)N1CCCC2CN(c3c(F)cc(C(N)=O)c4[nH]c(C)c(Cl)c34)CC21 (stereo not drawn) [Compound 40, 4-(1-(but-2-ynoyl)octahydro-6H-pyrrolo[3,4-b]pyridin-6-yl)-3-chloro-5-fluoro-2-methyl-1H-indole-7-carboxamide] | 0.01 to 0.1 | > 0.5 | < 0.01 | –
